Here are results for 13 compounds from US11339130B1 (Blade Therapeutics, Inc., priority 2016, dated 2022).

Assay [1] relates to Calpain activity in SH-SY5Y cells (SBDP-150). Briefly: SH-SY5Y Spectrin western blot assay (SBDP-150 breakdown product, A23187-induced). Type of assay: cell-based. The following applies: Homo sapiens; SH-SY5Y cells, A23187-induced SBDP-150, western blot; read-out: SH-SY5Y Spectrin IC50.
For another assay, the target named is T1, Human Calpain 1/NS1 (Homo sapiens, UniProt P07384).
T1 sequence (P07384 1-714): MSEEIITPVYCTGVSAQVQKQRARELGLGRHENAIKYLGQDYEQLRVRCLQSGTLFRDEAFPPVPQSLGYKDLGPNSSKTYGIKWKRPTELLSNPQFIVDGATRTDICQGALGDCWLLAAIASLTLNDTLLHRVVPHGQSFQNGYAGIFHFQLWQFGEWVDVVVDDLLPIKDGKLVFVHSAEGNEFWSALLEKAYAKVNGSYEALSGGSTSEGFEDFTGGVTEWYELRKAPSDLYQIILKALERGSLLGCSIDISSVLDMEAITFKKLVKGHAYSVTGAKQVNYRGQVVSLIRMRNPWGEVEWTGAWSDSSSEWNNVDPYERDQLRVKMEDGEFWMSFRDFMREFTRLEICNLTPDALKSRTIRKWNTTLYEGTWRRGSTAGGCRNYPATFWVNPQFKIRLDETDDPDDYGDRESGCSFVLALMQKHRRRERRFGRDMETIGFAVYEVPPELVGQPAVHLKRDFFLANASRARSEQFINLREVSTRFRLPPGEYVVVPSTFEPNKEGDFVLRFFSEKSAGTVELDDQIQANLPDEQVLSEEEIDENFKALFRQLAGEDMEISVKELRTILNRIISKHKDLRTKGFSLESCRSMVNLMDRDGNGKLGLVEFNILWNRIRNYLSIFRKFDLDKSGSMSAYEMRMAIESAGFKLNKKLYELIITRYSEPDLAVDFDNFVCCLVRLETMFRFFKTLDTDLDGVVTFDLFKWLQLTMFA
T1 sequence (P04632 1-268 partner): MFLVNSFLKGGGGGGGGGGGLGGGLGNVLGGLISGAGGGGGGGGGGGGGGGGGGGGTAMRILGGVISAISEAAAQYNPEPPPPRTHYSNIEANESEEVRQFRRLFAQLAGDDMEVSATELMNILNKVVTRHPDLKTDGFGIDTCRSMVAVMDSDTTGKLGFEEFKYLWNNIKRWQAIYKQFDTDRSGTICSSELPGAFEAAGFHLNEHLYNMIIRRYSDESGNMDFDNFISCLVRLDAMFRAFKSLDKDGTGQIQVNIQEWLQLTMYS
Put plainly: Calpain inhibition continuous fluorescence (FRET) assay, Human Calpain 1/NS1. Type of assay: biochemical. As to conditions: read-out: Human Calpain 1/NS1 IC50. A digest of the protocol:
(§1)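 Calpain activity is measured kinetically with a quenched FRET peptide in 50 mM Tris pH 7.5, 100 mM NaCl, 1 mM DTT, with CaCl2 triggering activation. Rates over 1-5 min are plotted against log inhibitor to obtain IC50 by 4-parameter logistic fitting.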

In assay [2] the test system is Calpain activity in SH-SY5Y cells. Put plainly: SH-SY5Y + AMC fluorescence assay (Suc-LLVY-AMC substrate). Type of assay: cell-based. The following applies: read-out: SH-SY5Y + AMC IC50.
The target of a further assay is T2, Human Calpain 2/NS1 (Homo sapiens, UniProt P17655).
T2 sequence (P17655 1-700): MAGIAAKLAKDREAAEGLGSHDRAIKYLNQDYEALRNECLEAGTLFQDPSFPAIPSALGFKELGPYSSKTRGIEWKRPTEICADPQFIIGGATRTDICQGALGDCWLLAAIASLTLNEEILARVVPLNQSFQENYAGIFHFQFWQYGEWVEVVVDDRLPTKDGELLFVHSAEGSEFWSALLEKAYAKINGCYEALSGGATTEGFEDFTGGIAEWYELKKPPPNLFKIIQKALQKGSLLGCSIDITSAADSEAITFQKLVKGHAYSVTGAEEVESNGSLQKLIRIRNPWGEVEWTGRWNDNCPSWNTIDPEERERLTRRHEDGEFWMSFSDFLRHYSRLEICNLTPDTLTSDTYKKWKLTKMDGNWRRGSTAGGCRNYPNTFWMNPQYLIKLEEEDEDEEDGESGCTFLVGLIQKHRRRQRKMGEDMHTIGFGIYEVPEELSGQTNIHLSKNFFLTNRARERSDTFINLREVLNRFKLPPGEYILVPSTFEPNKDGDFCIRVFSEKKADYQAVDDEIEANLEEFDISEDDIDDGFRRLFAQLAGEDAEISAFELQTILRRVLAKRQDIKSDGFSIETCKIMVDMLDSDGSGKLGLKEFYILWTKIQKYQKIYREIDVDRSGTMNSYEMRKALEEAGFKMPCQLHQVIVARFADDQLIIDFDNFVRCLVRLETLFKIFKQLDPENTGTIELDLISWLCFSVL
T2 sequence (P04632 1-268 partner): T1 sequence (P04632 1-268 partner)
Briefly: Calpain inhibition continuous fluorescence (FRET) assay, Human Calpain 2/NS1. Type of assay: biochemical. The following applies: read-out: Human Calpain 2/NS1 IC50. The method, boiled down: as §1

The target of a further assay is T3, Human Calpain 9/NS1 (Homo sapiens, UniProt O14815).
T3 sequence (O14815 1-690): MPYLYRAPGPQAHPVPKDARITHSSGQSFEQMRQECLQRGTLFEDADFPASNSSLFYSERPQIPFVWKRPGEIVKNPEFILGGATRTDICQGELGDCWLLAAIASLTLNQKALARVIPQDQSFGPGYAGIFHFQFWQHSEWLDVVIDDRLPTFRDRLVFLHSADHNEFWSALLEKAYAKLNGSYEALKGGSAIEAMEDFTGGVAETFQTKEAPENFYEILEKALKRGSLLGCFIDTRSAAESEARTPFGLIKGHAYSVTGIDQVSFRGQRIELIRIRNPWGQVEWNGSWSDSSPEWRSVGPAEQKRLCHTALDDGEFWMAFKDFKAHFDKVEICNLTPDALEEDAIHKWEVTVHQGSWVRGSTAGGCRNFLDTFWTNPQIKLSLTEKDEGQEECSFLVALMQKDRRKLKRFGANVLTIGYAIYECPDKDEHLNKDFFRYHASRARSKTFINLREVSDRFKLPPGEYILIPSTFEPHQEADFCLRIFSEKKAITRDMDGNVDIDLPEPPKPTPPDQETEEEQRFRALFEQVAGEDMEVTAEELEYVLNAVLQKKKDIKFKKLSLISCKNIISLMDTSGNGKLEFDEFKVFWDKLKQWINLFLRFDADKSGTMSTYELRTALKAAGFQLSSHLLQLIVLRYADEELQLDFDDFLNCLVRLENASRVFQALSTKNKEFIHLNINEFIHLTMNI
T3 sequence (P04632 1-268 partner): T1 sequence (P04632 1-268 partner)
Put plainly: Calpain inhibition continuous fluorescence (FRET) assay, Human Calpain 9/NS1. The class given is biochemical. The following applies: read-out: Human Calpain 9/NS1 IC50. The method, boiled down: as §1

The structures appear in SMILES notation. Where only a bound is given, the exact number is not on record here.

In the case of `Cn1cc(C(=O)NC(Cc2ccccc2)C(=O)C(N)=O)c(Cn2ncc3cnccc32)n1` (centres unmarked) [Compound 408, 3-((1H-pyrazolo[4,3-c]pyridin-1-yl)methyl)-N-(4-amino-3,4-dioxo-1-phenylbutan-2-yl)-1-methyl-1H-pyrazole-4-carboxamide], the IC50 in assay [1] was 10 to 25 µM; at Human Calpain 1/NS1, above 10 µM; in assay [2] it was below 10 µM; at Human Calpain 2/NS1, 3 to 10 µM; at Human Calpain 9/NS1 it was above 10 µM.
With `N#Cc1ccc(-c2nn(C3CC3)cc2C(=O)NC(Cc2ccccc2)C(=O)C(N)=O)cn1` (centres unmarked) [Compound 413, N-(4-amino-3,4-dioxo-1-phenylbutan-2-yl)-3-(6-cyanopyridin-3-yl)-1-cyclopropyl-1H-pyrazole-4-carboxamide], the IC50 in assay [1] is above 25 µM; at Human Calpain 1/NS1, below 3 µM; in assay [2], above 25 µM; on Human Calpain 2/NS1, below 3 µM; on Human Calpain 9/NS1, below 3 µM.
Regarding `CC(C)C[C@H](NC(=O)c1cn(C)nc1-c1ccccc1)C(=O)C(N)=O` [Compound 415, (S)—N-(1-amino-5-methyl-1,2-dioxohexan-3-yl)-1-methyl-3-phenyl-1H-pyrazole-4-carboxamide], the IC50 was above 25 µM in assay [1]; below 3 µM at Human Calpain 1/NS1; above 25 µM in assay [2]; below 3 µM at Human Calpain 2/NS1; below 3 µM on Human Calpain 9/NS1.
Regarding `Cn1cc(C(=O)N[C@@H](CC(C)(C)C)C(=O)C(N)=O)c(-c2ccccc2)n1` [Compound 416, (S)—N-(1-amino-5,5-dimethyl-1,2-dioxohexan-3-yl)-1-methyl-3-phenyl-1H-pyrazole-4-carboxamide], the IC50 in assay [1] is above 25 µM; on Human Calpain 1/NS1 it was below 3 µM; in assay [2], above 25 µM; on Human Calpain 2/NS1, below 3 µM; on Human Calpain 9/NS1 it was below 3 µM.
For the compound `Cn1cc(C(=O)NC(CCc2ccccc2)C(=O)C(N)=O)c(-c2ccccc2)n1` (centres unmarked) [Compound 417, N-(1-amino-1,2-dioxo-5-phenylpentan-3-yl)-1-methyl-3-phenyl-1H-pyrazole-4-carboxamide], the IC50 in assay [1] is above 25 µM; on Human Calpain 1/NS1 it was below 3 µM; in assay [2] it was above 25 µM; at Human Calpain 2/NS1, below 3 µM; at Human Calpain 9/NS1, below 3 µM.
Take `Cn1cc(C(=O)NC(Cc2cc(Cl)cc(Cl)c2)C(=O)C(N)=O)c(-c2ccccc2)n1` (centres unmarked) [Compound 418, N-(4-amino-1-(3,5-dichlorophenyl)-3,4-dioxobutan-2-yl)-1-methyl-3-phenyl-1H-pyrazole-4-carboxamide]: the IC50 in assay [1] was 10 to 25 µM; on Human Calpain 1/NS1 it was below 3 µM; in assay [2] it was 10 to 25 µM; at Human Calpain 2/NS1 it was below 3 µM; at Human Calpain 9/NS1 it was below 3 µM.
Regarding `CCCC[C@H](NC(=O)c1cn(C)nc1-c1ccccc1)C(=O)C(N)=O` [Compound 419, (S)—N-(1-amino-1,2-dioxoheptan-3-yl)-1-methyl-3-phenyl-1H-pyrazole-4-carboxamide], the IC50 in assay [1] is 10 to 25 µM; on Human Calpain 1/NS1, below 3 µM; in assay [2] it was above 25 µM; on Human Calpain 2/NS1 it was below 3 µM; at Human Calpain 9/NS1, below 3 µM.
`COc1ccc(C[C@H](NC(=O)c2cn(C)nc2-c2ccccc2)C(=O)C(N)=O)cc1` [Compound 420, (S)—N-(4-amino-1-(4-methoxyphenyl)-3,4-dioxobutan-2-yl)-1-methyl-3-phenyl-1H-pyrazole-4-carboxamide]: the IC50 in assay [1] was below 10 µM; on Human Calpain 1/NS1, below 3 µM; in assay [2], above 25 µM; on Human Calpain 2/NS1, below 3 µM; on Human Calpain 9/NS1, below 3 µM.
Regarding `Cn1cc(C(=O)N[C@@H](Cc2ccc(O)cc2)C(=O)C(N)=O)c(-c2ccccc2)n1` [Compound 421, (S)—N-(4-amino-1-(4-hydroxyphenyl)-3,4-dioxobutan-2-yl)-1-methyl-3-phenyl-1H-pyrazole-4-carboxamide], the IC50 in assay [1] was 10 to 25 µM; at Human Calpain 1/NS1, below 3 µM; in assay [2], below 10 µM; on Human Calpain 2/NS1 it was below 3 µM; at Human Calpain 9/NS1, below 3 µM.
Consider `Cn1cc(C(=O)NC(CCC(F)(F)F)C(=O)C(N)=O)c(-c2ccccc2)n1` (centres unmarked) [Compound 422, N-(1-amino-6,6,6-trifluoro-1,2-dioxohexan-3-yl)-1-methyl-3-phenyl-1H-pyrazole-4-carboxamide], for which the IC50 was above 25 µM in assay [1]; above 10 µM at Human Calpain 1/NS1; above 25 µM in assay [2]; 3 to 10 µM at Human Calpain 2/NS1; 3 to 10 µM at Human Calpain 9/NS1.
Consider `Cn1cc(C(=O)N[C@@H](Cc2c[nH]c3ccccc23)C(=O)C(N)=O)c(-c2ccccc2)n1` [Compound 423, (S)—N-(4-amino-1-(1H-indol-3-yl)-3,4-dioxobutan-2-yl)-1-methyl-3-phenyl-1H-pyrazole-4-carboxamide], for which the IC50 in assay [1] is below 10 µM; on Human Calpain 1/NS1, below 3 µM; in assay [2], below 10 µM; on Human Calpain 2/NS1 it was below 3 µM; at Human Calpain 9/NS1 it was below 3 µM.
Regarding `Cn1cc(C(=O)NC(CC(F)(F)F)C(=O)C(N)=O)c(-c2ccccc2)n1` (centres unmarked) [Compound 424, N-(5-amino-1,1,1-trifluoro-4,5-dioxopentan-3-yl)-1-methyl-3-phenyl-1H-pyrazole-4-carboxamide], the IC50 was 10 to 25 µM in assay [1]; 3 to 10 µM on Human Calpain 1/NS1; above 25 µM in assay [2]; below 3 µM at Human Calpain 2/NS1; below 3 µM at Human Calpain 9/NS1.
For `Cc1cc(C(=O)NC(Cc2ccccc2)C(=O)C(N)=O)c(-n2cc3ccccc3n2)s1` (centres unmarked) [Compound 428, N-(4-amino-3,4-dioxo-1-phenylbutan-2-yl)-2-(2H-indazol-2-yl)-5-methylthiophene-3-carboxamide], the IC50 in assay [1] is below 10 µM; at Human Calpain 1/NS1 it was below 3 µM; in assay [2], above 25 µM; on Human Calpain 2/NS1 it was below 3 µM; at Human Calpain 9/NS1 it was below 3 µM.
